Experimental data from US20070293493A1, “OXAZOLIDINONE ANTIBIOTICS AND DERIVATIVES THEREOF” (priority 2003, published 2007).
In brackets after ≈: the same amount, converted by molar mass. Read-outs that look alike come from different tables or passages of the source.

How the values were obtained:
Assay type in all cases: cell-based
[1] = system: Streptococcus pneumoniae IID553; test: MIC, agar dilution method, Mueller-Hinton agar with 5% defibrinated horse blood; settings: 35° C., 5% CO2, 24 hours
Experimental: (§1) The following in vitro results were obtained based on an agar dilution method except for C. pneumoniae. The activity is presented as the minimum inhibitory concentration (MIC).
(§2) Streptococci and enterococci were tested on Mueller-Hinton agar supplemented with 5% defibrinated horse blood, using an approximate inoculum of 1×10^4 cfu/spot an incubation temperature of 35° C. in an atmosphere of 5% CO2 for 24 hours. The MIC was defined as the lowest concentration at which no visible bacterial growth was observed.

[2] = system: Streptococcus pneumoniae PRQR (penicillin resistant, quinolone resistant); test: as above; settings: 35° C., 5% CO2, 24 hours
Experimental: as §1, §2

[3] = system: Enterococcus faecium VRQR (vancomycin resistant, quinolone resistant); test: as above; settings: 35° C., 5% CO2, 24 hours
Experimental: as §1, §2

[4] = system: Streptococcus pyogenes IID692; test: as above; settings: 35° C., 5% CO2, 24 hours
Experimental: as §1, §2

[5] = system: Staphylococcus aureus MR (methicillin resistant); test: MIC, agar dilution method, Mueller-Hinton agar; settings: 35° C., 24 hours
Experimental: as §1
(§3) S. aureus and M. catarrhalis were tested on Mueller-Hinton agar, using an approximate inoculum of 1×10^4 cfu/spot an incubation temperature of 35° C. for 24 hours. The MIC was defined as the lowest concentration at which no visible bacterial growth was observed.

[6] = system: Staphylococcus aureus Smith; test: MIC, agar dilution method, Mueller-Hinton agar; settings: 35° C., 24 hours
Experimental: as §1, §3

[7] = system: Staphylococcus aureus CR (chloramphenicol resistant); test: MIC, agar dilution method, Mueller-Hinton agar; settings: 35° C., 24 hours
Experimental: as §1, §3

[8] = system: Moraxella catarrhalis ATCC25238; test: MIC, agar dilution method, Mueller-Hinton agar; settings: 35° C., 24 hours
Experimental: as §1, §3

MIC [1] [µg/mL] | MIC [2] [µg/mL] | MIC [3] [µg/mL] | MIC [4] [µg/mL] | MIC [5] [µg/mL] | MIC [6] [µg/mL] | MIC [7] [µg/mL] | MIC [8] [µg/mL] | MIC ([1]; read-out: MIC) [µg/mL] | MIC ([2]; read-out: MIC) [µg/mL] | MIC ([3]; read-out: MIC) [µg/mL] | MIC ([4]; read-out: MIC) [µg/mL] | MIC ([5]; read-out: MIC) [µg/mL] | MIC ([6]; read-out: MIC) [µg/mL] | MIC ([7]; read-out: MIC) [µg/mL] | MIC ([8]; read-out: MIC) [µg/mL] | SMILES
0.5 (≈ 1.37 µM) | 0.25 (≈ 0.684 µM) | 0.25 (≈ 0.684 µM) | 0.125 (≈ 0.342 µM) | 0.06 (≈ 0.164 µM) | 0.125 (≈ 0.342 µM) | 1 (≈ 2.74 µM) | 1 (≈ 2.74 µM) | – | – | – | – | – | – | – | – | N#C[C@@H]1[C@H]2C=C(c3ccc(N4C[C@H](Cn5ccnn5)OC4=O)cc3F)C[C@@H]12 [example 8, 1-[5(R)-3-[4-[(1α,5α,6α)-6-Cyanobicyclo[3.1.0]hex-2-en-3-yl]-3-fluorophenyl]-2-oxooxazolidin-5-ylmethyl]-1,2,3-triazole]
– | – | – | – | – | – | – | – | 0.25 (≈ 0.664 µM) | 0.25 (≈ 0.664 µM) | 1 (≈ 2.66 µM) | 0.25 (≈ 0.664 µM) | 0.25 (≈ 0.664 µM) | 0.125 (≈ 0.332 µM) | 2 (≈ 5.31 µM) | 1 (≈ 2.66 µM) | N[C@@H]1[C@H]2CN(c3c(F)cc(N4C[C@H](Cn5ccnn5)OC4=O)cc3F)C[C@@H]12 [example 2, 1-[5(R)-3-[4-[(1α,5α,6α)-6-Amino-3-azabicyclo[3.1.0]hexan-3-yl]-3,5-difluorophenyl]-2-oxooxazolidin-5-ylmethyl]-1,2,3-triazole]
